The text below walks through data of US20050238642A1, “Modified bouganin proteins, cytotoxins and methods and uses thereof” (priority 2004, published 2005).

In one test the test system is NIH:OVCAR-3. As to the kind of experiment: MTS cytotoxicity assay. The class given is cell-based. The note with it: Ep-CAM-positive NIH:OVCAR-3, MTS, 5 days. As to the method:
The MTS assay used to measure potency was conducted using standard technique known in the art, and as more fully described below in Example 8. […] In the case of VB6-845-CL-de-bouganin, the potency was measured at 1 to 2 nM for CAL 27 and 0.6 to 0.7 nM versus NIH:OVCAR-3.
(§1) The MTS assay was preformed using standard techniques known in the art. More particularly, 50 microlitres of cells (2×10^4 cells/ml) were seeded per well and plates were incubated at 37° C. under 5% CO2 for 2 hr. Then 50 microlitres of spiked drug (i.e. construct to be tested or control) was added to the culture medium at increasing concentrations. Culture medium, with or without cells, was used as positive and negative controls, respectively. The plates were left at 37° C. under 5% CO2 for 5 days. At day 5, the inhibition of cell proliferation was evaluated by adding 20 microlitres of MTS reagent (Promega, Cat# G5430). The plates were further incubated at 37° C. under 5% CO2 for 2 hr and ODs were read at 490 nm using the plate reader spetrophotometer. Background values were subtracted from the sample values obtained for each concentration and the results were expressed as a percent of viable cells. The IC50 values for each drug were calculated for each cell line.
For orientation: Tetrazolium dyes change colour on reduction, which living cells bring about.

The next test relates to A-375. As to the kind of experiment: MTS cytotoxicity assay. In kind it is cell-based. The settings on record: Ep-CAM-negative A-375, MTS, 5 days. On the procedure: as §1
The next test relates to HMEC. Briefly: MTS cytotoxicity assay. In kind it is cell-based, human. The note with it: Ep-CAM-negative HMEC, 5 days. As to the method: The tumour cell lines used in this study were purchase from ATCC and were propagated following ATCC's recommendations except for the cell lines C-41, TOV-112D which were grown in RPMI 1640 or DMEM supplemented with 10% FCS, respectively. Tumor cells were harvested at 60-70% confluence with viability over 90%. The human normal mammary epithelial cells (HMEC) were purchased from CAMBREX and maintained in specified media according to the procedure provided by CAMBREX. The cells were harvested at 70% confluence with viability over 90%.
as §1

Test [1] deals with PBMCs (peripheral blood mononuclear cells) from naive donors. Briefly: Naive human T-cell proliferation assay (3H-thymidine incorporation, stimulation index). The class given is cell-based. The note with it: for presence of T cell epitope: compilation of 20 donors, 1 μM and 5 μM; for T cell proliferation (in words): compared with peptide 44; for responsive donors: of 20 donor PBMC samples. As to the method:
Accordingly, in the present studies, 89 synthetic 15-mer peptides (as listed in Table 1) were used in T-cell proliferation assays with PBMCs (peripheral blood mononuclear cells) from naive donors (i.e. no known sensitization to bouganin). 20 donor PBMC samples were selected to achieve an optimal coverage of MHC class II allotypes. PBMCs were stimulated with individual peptides in triplicate cultures for 7 days before proliferation was assessed by ^3H-thymidine incorporation. All peptides were diluted at two different concentrations: 1 μM and 5 μM. The stimulation indices (SI) were calculated as the amount of ^3H incorporated into the cells, divided by the amount of ^3H incorporated in mock-stimulated controls.
The peptides were used in T-cell proliferation assays with PBMCs (peripheral blood mononuclear cells) from naive donors (i.e. no known sensitization to bouganin). 20 donor PBMC were selected to get an optimal coverage of MHC class II allotypes. The allotypic coverage is in excess of 85%.
PBMCs were stimulated with individual peptides in triplicate cultures for 7 days before proliferation was assessed by ^3H-thymidine (^3H-Thy) incorporation. All peptides were tested at two different concentrations (1 μM and 5 μM). Stimulation indices (S.I.) were calculated as the amount of ^3H incorporated, divided by the amount of ^3H incorporated in mock-stimulated control cells.
Buffy coats from human blood stored for less than 12 hours were obtained from the National Blood Service (Addenbrooks Hospital, Cambridge, UK). Ficoll-paque was obtained from Amersham Pharmacia Biotech (Amersham, UK). Serum free AIM V media for the culture of primary human lymphocytes and containing L-glutamine, 50 μg/ml streptomycin, 10 μg/ml gentomycin and 0.1% human serum albumin was from Gibco-BRL (Paisley, UK). Synthetic peptides were obtained from Eurosequence (Groningen, The Netherlands) and Babraham Technix (Cambridge, UK).
Erythrocytes and leukocytes were separated from plasma and platelets by gentle centrifugation of buffy coats. The top phase (containing plasma and platelets) was removed and discarded. Erythrocytes and leukocytes were diluted 1:1 in phosphate buffered saline (PBS) before layering onto 15 ml ficoll-paque (Amersham Pharmacia, Amersham UK). Centrifugation was done according to the manufacturers recommended conditions and PBMCs were harvested from the serum+PBS/ficoll paque interface. PBMCs were mixed with PBS (1:1) and collected by centrifugation. The supernatant was removed and discarded and the PBMC pellet resuspended in 50ml PBS. Cells were again pelleted by centrifugation and the PBS supernatant discarded. Cells were resuspended using 50 ml AIM V media and at this point counted and viability assessed using trypan blue dye exclusion. Cells were again collected by centrifugation and the supernatant discarded. Cells were resuspended for cryogenic storage at a density of 3×10^7 per ml. The storage medium was 90% (v/v) heat inactivated AB human serum (Sigma, Poole, UK) and 10% (v/v) DMSO (Sigma, Poole, UK). Cells were transferred to a regulated freezing container (Sigma) and placed at −70° C. overnight. When required for use, cells were thawed rapidly in a water bath at 37° C. before transferring to 10ml pre-warmed AIM V medium.
PBMC were stimulated with protein and peptide antigens in a 96 well flat bottom plate at a density of 2×10^5 PBMC per well. PBMC were incubated for 7 days at 37° C. before pulsing with ^3H-Thy (Amersham-Pharmacia, Amersham, UK). […] C-32=sequence […] from Flu haemagglutinin residues 307-319 (SEQ ID NO:127). C-49=sequence […] from Chlamydia HSP 60 (SEQ ID NO:128).
Peptides were dissolved in DMSO to a final concentration of 10 mM, these stock solutions were then diluted 1/500 in AIM V media (final concentration 20 μM). Peptides were added to a flat bottom 96 well plate to give a final concentration of 1 and 5 μM in 100 μl. […]

A further test has as its system DAUDI. Briefly: MTS cytotoxicity assay. The settings on record: Ep-CAM-negative DAUDI, 5 days. The class given is cell-based. As to the method:
as §1

One may read the IC50 as the concentration at which inhibition is half-maximal.

Consider `COc1cccc2c1C(=O)c1c(O)c3c(c(O)c1C2=O)C[C@@](O)(C(=O)CO)C[C@@H]3O[C@H]1C[C@H](N)[C@H](O)[C@H](C)O1` [Doxorubicin], for which the IC50 in the test with NIH:OVCAR-3 (Homo sapiens, 120 h) was 3 nM; in the test with A-375 (Homo sapiens, 120 h), 2.8 nM; with HMEC (Homo sapiens, 120 h), 16 nM.

In the case of “IVEDLDGDELEILEP [peptide 88, 15-mer peptide of the unprocessed form of bouganin, first amino acid 261]”, the “presence of T cell epitope” value in test [1] is “T cell epitopes”.

Consider `CC[C@@]1(O)C(=O)OCc2c1cc1n(c2=O)Cc2cc3c(CN(C)C)c(O)ccc3nc2-1` [Topotecan], for which the IC50 was 0.071 nM with NIH:OVCAR-3 (Homo sapiens, 120 h); 1.5 nM with A-375 (Homo sapiens, 120 h); 0.009 nM with DAUDI (Homo sapiens, 120 h); 4.1 nM in the test with HMEC (Homo sapiens, 120 h).

Take `O=P1(N(CCCl)CCCl)NCCCO1` (centres unmarked) [Cyclophosphamide]: the IC50 in the test on NIH:OVCAR-3 (Homo sapiens, 120 h) was greater than 1000 nM; in the test with A-375 (Homo sapiens, 120 h), greater than 1000 nM; in the test on DAUDI (Homo sapiens, 120 h) it was greater than 1000 nM; in the test on HMEC (Homo sapiens, 120 h), greater than 1000 nM.

For the molecule “YKLEFSIEAIHGKTI [compound 45, bouganin 15-mer peptide, first amino acid 133]”, in test [1], the “T cell proliferation (in words)” value is given as “lower level T cell proliferation”.

Regarding `Cc1c(N)nc([C@H](CC(N)=O)NC[C@H](N)C(N)=O)nc1C(=O)N[C@H](C(=O)N[C@H](C)[C@@H](O)[C@H](C)C(=O)N[C@H](C(=O)NCCc1nc(-c2nc(C(=O)NCCCNCCCCN)cs2)cs1)[C@@H](C)O)[C@@H](O[C@@H]1O[C@@H](CO)[C@@H](O)[C@H](O)[C@@H]1O[C@@H]1O[C@H](CO)[C@@H](O)[C@H](OC(N)=O)[C@@H]1O)c1cnc[nH]1` [Bleomycin A5], the IC50 worked out at 150 nM in the test with NIH:OVCAR-3, 290 nM in the test on A-375, 130 nM in the test on DAUDI and 1000 nM with HMEC.

Consider `O=c1[nH]cc(F)c(=O)[nH]1` [Fluorouracil], for which the IC50 was greater than 1000 nM in the test on NIH:OVCAR-3 (Homo sapiens, 120 h); greater than 1000 nM in the test on A-375 (Homo sapiens, 120 h); greater than 1000 nM in the test on DAUDI (Homo sapiens, 120 h); greater than 1000 nM in the test on HMEC (Homo sapiens, 120 h).

For the molecule `N.N.O=C([O-])C1(C(=O)[O-])CCC1.[Pt+2]` [Carboplatin], the IC50 with NIH:OVCAR-3, with A-375, with DAUDI and with HMEC was greater than 1000 nM in each case.

For “AKVDRKDLELGVYKL [peptide 41, bouganin 15-mer peptide, first amino acid 121]”, the “presence of T cell epitope” value in test [1] is reported as “T cell epitopes”. In addition, the “S.I. (stimulation index)” value in test [1] (donor 4, peptide at 5 μM) is given as 3.6; in test [1] (donor 5, peptide at 5 μM) it was 4.9; in test [1] (donor 10, peptide at 5 μM) it was 2.1; in test [1] (donor 11, peptide at 5 μM) it was 2.0. The responsive donors entry in test [1] is recorded as “four”.

For `O=C(O)CCCc1ccc(N(CCCl)CCCl)cc1` [Chlorambucil], the IC50 is greater than 1000 nM with NIH:OVCAR-3 (Homo sapiens, 120 h); greater than 1000 nM in the test on A-375 (Homo sapiens, 120 h); greater than 1000 nM in the test on DAUDI (Homo sapiens, 120 h); greater than 1000 nM in the test on HMEC (Homo sapiens, 120 h).

As for “EIAKFFLIVIQMVSE [peptide 51, bouganin 15-mer peptide, first amino acid 151]”, the “S.I. (stimulation index)” value in test [1] (donor 14) is greater than 1.9.

Consider `COc1cc([C@@H]2c3cc4c(cc3[C@@H](O[C@@H]3O[C@@H]5CO[C@@H](C)O[C@H]5[C@H](O)[C@H]3O)[C@H]3COC(=O)[C@H]23)OCO4)cc(OC)c1O` [Etoposide], for which the IC50 was 210 nM with NIH:OVCAR-3 (Homo sapiens, 120 h); 280 nM in the test with A-375 (Homo sapiens, 120 h); 1.7 nM in the test on DAUDI (Homo sapiens, 120 h); 600 nM with HMEC (Homo sapiens, 120 h).

For “DLELGVYKLEFSIEA [compound 43, bouganin 15-mer peptide, first amino acid 127]”, the “T cell proliferation (in words)” value in test [1] is “lower level T cell proliferation”.

For `CCc1c2c(nc3ccc(OC(=O)N4CCC(N5CCCCC5)CC4)cc13)-c1cc3c(c(=O)n1C2)COC(=O)[C@]3(O)CC` [Irinotecan], the IC50 in the test with NIH:OVCAR-3 (Homo sapiens, 120 h) came to 180 nM; with A-375 (Homo sapiens, 120 h), 900 nM; with DAUDI (Homo sapiens, 120 h), 190 nM; with HMEC (Homo sapiens, 120 h), 1000 nM.

With “NGQEIAKFFLIVIQM [peptide 50, bouganin 15-mer peptide, first amino acid 148]”, in test [1], the “presence of T cell epitope” value is reported as “T cell epitopes”. For the same molecule, the figures for the “S.I. (stimulation index)” value in test [1] (donor 4) and in test [1] (donor 14) were 2.9 and 2.0, respectively. For the same molecule, the responsive donors in test [1] was found to be 2.

Regarding “LGVYKLEFSIEAIHG [peptide 44, bouganin 15-mer peptide, first amino acid 130]”, the “presence of T cell epitope” value in test [1] is reported as “T cell epitopes”. Also, the “S.I. (stimulation index)” value in test [1] (donor 4) was determined as 3.5; in test [1] (donor 11) it was 2.3. Moreover, the responsive donors entry in test [1] was “two”.

B1: VB6-845: cytotoxin: Fab version of an anti-Ep-CAM scFv antibody linked to Bou156 at the C-terminus of the CH domain via a furin linker (protein)
chain 1: EVQLVQSGPGLVQPGGSVRISCAASGYTFTNYGMNWVKQAPGKGLEWMGWINTYTGESTYADSFKGRFTFSLDTSASAAYLQINSLRAEDTAVYYCARFAIKGDYWGQGTLLTVSSASTKGPSVFPLAPSSKSTSGGTAALGCLVKDYFPEPVTVSWNSGALTSGVHTFPAVLQSSGLYSLSSVVTVPSSSLGTQTYICNVNHKPSNTKVDKKVEPKSCTRHRQPRGWEQLYNTVSFNLGEAYEYPTFIQDLRNELAKGTPVCQLPVTLQTIADDKRFVLVDITTTSKKTVKVAIDVTDVYVVGYQDKWDGKDRAVFLDKVPTVATSKLFPGVTNRVTLTFDGSYQKLVNAAKADRKALELGVNKLEFSIEAIHGKTINGQEAAKFFLIVIQMVSEAARFKYIETEVVDRGLYGSFKPNFKVLNLENNWGDISDAIHKSSPQCTTINPALQLISPSNDPWVVNKVSQISPDMGILKFKSSK
chain 2: HHHHHHDIQMTQSPSSLSASVGDRVTITCRSTKSLLHSNGITYLYWYQQKPGKAPKLLIYQMSNLASGVPSRFSSSGSGTDFTLTISSLQPEDFATYYCAQNLEIPRTFGQGTKVELKRTVAAPSVFIFPPSDEQLKSGTASVVCLLNNFYPREAKVQWKVDNALQSGNSQESVTEQDSKDSTYSLSSTLTLSKADYEKHKVYACEVTHQGLSSPVTKSFNRGEC
On to B1, for which the values for the IC50 in the test on A-375, in the test with DAUDI and in the test on HMEC were greater than 1000 nM, greater than 1000 nM and 220 nM, respectively.
